According to paper PMC3307704 (PLoS ONE, 2012):
“Also recorded” adds a separate entry of the source. Like-named read-outs stand apart in the source and are kept apart here.

Experiments:
Human Aβ(1–42) = biological target: T1, Human Aβ(1–42) (Homo sapiens, UniProt P05067); experiment: Aβ peptide oligomerization reaction with capture ELISA for Aβ oligomer detection; assay type: biochemical; settings: for inhibition at 1 µM: read-out: Inhibitory activity (Aβ oligomerization)
T1 construct: Human Aβ(1–42) was purchased from AnaSpec (San Jose, CA); purchased AnaSpec (San Jose, CA)

Murine microglial cells = experiment: Wst-1 assay (cytotoxicity); assay type: cell-based; settings: 24 h
[1] = system: high-molecular weight fibrils (Aβ); settings: in vitro; read-out: IC50, formation of high-molecular weight fibrils; cited from earlier work
[2] = system: low-molecular weight Aβ oligomers; settings: in vitro; read-out: IC50, formation of low-molecular weight Aβ oligomers; cited from earlier work
[3] = system: Aβ deposition in aged APP(Swedish)-transgenic mice (Tg2576); settings: dietary supplement; cited from earlier work
Aβ aggregation = settings: saturation of the 7-carbon linker; cited from earlier work
[4] = 1 µM compound, 200 nM monomeric Aβ peptide, 37°C, 24 h, capture ELISA

T1 sequence (P05067 672-713 limits assumed): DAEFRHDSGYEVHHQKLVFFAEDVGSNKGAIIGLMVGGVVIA

inhibition at 1 µM (Human Aβ(1–42); [4]) [%]	Structure (SMILES)	other results
80	COc1ccc(/C=C/C(=O)/C=C(O)/C=C/c2ccc(OC)c(O)c2)cc1O [compound 1]	
	COc1ccc(/C=C/C(=O)/C=C(O)/C=C/c2ccc(OC)c(OC)c2)cc1OC [compound 2]	IC50 (Human Aβ(1–42)): 150 nM; Improvement of Aβ aggregation inhibitory activity over curcumin (Human Aβ(1–42); ratio of IC50 values versus curcumin): 6-7 fold; inhibition at 1 µM (Human Aβ(1–42)): 75%; LD50 value relative to that of curcumin (Murine microglial cells; printed as fold lower than curcumin): approximately 2 fold
66	COc1cc(/C=C/C(=O)/C(C)=C(O)/C=C/c2ccc(O)c(OC)c2)ccc1O [compound 3]	
51	COc1cc(/C=C/C(=O)/C(Cc2ccccc2)=C(O)/C=C/c2ccc(O)c(OC)c2)ccc1O [compound 4]	
45	COc1cccc(/C=C/C(=O)/C=C(O)/C=C/c2cccc(OC)c2OC)c1OC [compound 7]	
74	O=C(/C=C/c1ccc(O)c(O)c1)/C=C/c1ccc(O)c(O)c1 [compound 8]	
66	COC(=O)c1ccc(/C=C/C(=O)/C=C/c2ccc(C(=O)OC)cc2)cc1 [compound 9]	
65	O=C(/C=C/c1ccccc1)/C=C/c1ccccc1 [compound 10]	
63	COc1cc(/C=C/C(=O)/C=C/c2ccccc2)ccc1O [compound 11]	
63	COc1ccccc1/C=C/C(=O)/C=C/c1ccccc1OC [compound 12]	
62	Cc1ccc(/C=C/C(=O)/C=C/c2ccc(C)cc2)cc1 [compound 13]	
	COc1cc(/C=C/C(=O)/C=C/c2ccc(O)c(OC)c2)ccc1O [compound 14]	inhibition at 1 µM (Human Aβ(1–42)): 58%
58	O=C(/C=C/c1cccc(Cl)c1)/C=C/c1cccc(Cl)c1 [compound 15]	
56	COc1cccc(/C=C/C(=O)/C=C/c2cccc(OC)c2)c1 [compound 16]	
55	O=C(/C=C/c1cccc(C(F)(F)F)c1)/C=C/c1cccc(C(F)(F)F)c1 [compound 17]	
54	CN(C)c1ccc(/C=C/C(=O)/C=C/c2ccc(N(C)C)cc2)cc1 [compound 18]	
53	COc1cc(/C=C/C(=O)/C=C/c2ccc(OC(C)=O)c(OC)c2)ccc1OC(C)=O [compound 19]	
49	O=C(/C=C/c1ccc(O)cc1)/C=C/c1ccc(O)cc1 [compound 20]	
	COc1cc(/C=C/C(=O)CC(=O)/C=C/c2ccc(O)c(OC)c2)ccc1O [curcumin]	IC50 [1]: 800 nM; inhibition at 1 µM (Human Aβ(1–42)): 50%; IC50 [2]: 1000 nM; LD50 value (cytotoxicity, Wst-1) (Murine microglial cells): 40 µM; Effect on Aβ deposition [3]: reduced Aβ deposition; also recorded: significantly lowered Aβ deposition
	COc1cc(CCC(=O)CC(=O)CCc2ccc(O)c(OC)c2)ccc1O [tetrahydrocurcumin]	Aβ aggregation inhibitory activity (Aβ aggregation): abolished Aβ aggregation inhibitory activity
